Measured values reported in ChEMBL document CHEMBL1153884, “Oligonucleotide-polyamine conjugates: influence of length and position of 2'-attached polyamines on duplex stability and antisense effect” (2009).

Columns and labels:
Nucleic Acid [1] = test: Duplex stability of RNA counter strand assessed as melting temperature; format: nucleic-acid assay
Nucleic Acid [2] = test: Duplex stability of DNA counter strand assessed as melting temperature; format: nucleic-acid assay

Row | Tm (Nucleic Acid [1]) | Tm (Nucleic Acid [2]) | SMILES
1 | 63 °C | 80 °C | Cc1cn([C@H]2C[C@H](OP(=O)(O)OC[C@H]3O[C@@H](n4cnc5c(N)ncnc54)[C@H](O)[C@@H]3OP(=O)(O)OC[C@H]3O[C@@H](n4ccc(N)nc4=O)[C@H](O)[C@@H]3OP(=O)(O)OC[C@H]3O[C@@H](n4ccc(N)nc4=O)[C@H](O)[C@@H]3OP(=O)(O)OC[C@H]3O[C@@H](n4cnc5c(=O)[nH]c(N)nc54)[C@H](O)[C@@H]3OP(=O)(O)OC[C@H]3O[C@@H](n4ccc(N)nc4=O)[C@H](O)[C@@H]3OP(=O)(O)OC[C@H]3O[C@@H](n4cnc5c(=O)[nH]c(N)nc54)[C@H](O)[C@@H]3OP(=O)(O)OC[C@H]3O[C@@H](n4cc(C)c(=O)[nH]c4=O)C[C@@H]3OP(=O)(O)OC[C@H]3O[C@@H](n4cnc5c(=O)[nH]c(N)nc54)[C@H](O)[C@@H]3OP(=O)(O)OC[C@H]3O[C@@H](n4ccc(N)nc4=O)[C@H](O)[C@@H]3OP(=O)(O)OC[C@H]3O[C@@H](n4cnc5c(=O)[nH]c(N)nc54)[C@H](O)[C@@H]3OP(=O)(O)OC[C@H]3O[C@@H](n4cnc5c(N)ncnc54)[C@H](O)[C@@H]3OP(=O)(O)OC[C@H]3O[C@@H](n4ccc(N)nc4=O)[C@H](O)[C@@H]3OP(=O)(O)OC[C@H]3O[C@@H](n4ccc(N)nc4=O)[C@H](O)[C@@H]3OP(=O)(O)OC[C@H]3O[C@@H](n4ccc(N)nc4=O)[C@H](O)[C@@H]3OP(=O)(O)OC[C@H]3O[C@@H](n4cc(C)c(=O)[nH]c4=O)C[C@@H]3OP(=O)(O)OC[C@H]3O[C@@H](n4ccc(N)nc4=O)[C@H](O)[C@@H]3OP(=O)(O)OC[C@H]3O[C@@H](n4ccc(=O)[nH]c4=O)[C@H](NCCCNCCCCNCCCN)[C@@H]3O)[C@@H](CO)O2)c(=O)[nH]c1=O
2 | 57.8 °C | 74.5 °C | Cc1cn([C@H]2C[C@H](OP(=O)(O)OC[C@H]3O[C@@H](n4cnc5c(N)ncnc54)[C@H](O)[C@@H]3OP(=O)(O)OC[C@H]3O[C@@H](n4ccc(N)nc4=O)[C@H](O)[C@@H]3OP(=O)(O)OC[C@H]3O[C@@H](n4ccc(N)nc4=O)[C@H](O)[C@@H]3OP(=O)(O)OC[C@H]3O[C@@H](n4cnc5c(=O)[nH]c(N)nc54)[C@H](O)[C@@H]3OP(=O)(O)OC[C@H]3O[C@@H](n4ccc(N)nc4=O)[C@H](O)[C@@H]3OP(=O)(O)OC[C@H]3O[C@@H](n4cnc5c(=O)[nH]c(N)nc54)[C@H](O)[C@@H]3OP(=O)(O)OC[C@H]3O[C@@H](n4ccc(=O)[nH]c4=O)[C@H](NCCCNCCCCNCCCN)[C@@H]3OP(=O)(O)OC[C@H]3O[C@@H](n4cnc5c(=O)[nH]c(N)nc54)[C@H](O)[C@@H]3OP(=O)(O)OC[C@H]3O[C@@H](n4ccc(N)nc4=O)[C@H](O)[C@@H]3OP(=O)(O)OC[C@H]3O[C@@H](n4cnc5c(=O)[nH]c(N)nc54)[C@H](O)[C@@H]3OP(=O)(O)OC[C@H]3O[C@@H](n4cnc5c(N)ncnc54)[C@H](O)[C@@H]3OP(=O)(O)OC[C@H]3O[C@@H](n4ccc(N)nc4=O)[C@H](O)[C@@H]3OP(=O)(O)OC[C@H]3O[C@@H](n4ccc(N)nc4=O)[C@H](O)[C@@H]3OP(=O)(O)OC[C@H]3O[C@@H](n4ccc(N)nc4=O)[C@H](O)[C@@H]3OP(=O)(O)OC[C@H]3O[C@@H](n4cc(C)c(=O)[nH]c4=O)C[C@@H]3OP(=O)(O)OC[C@H]3O[C@@H](n4ccc(N)nc4=O)[C@H](O)[C@@H]3OP(=O)(O)OC[C@H]3O[C@@H](n4ccc(=O)[nH]c4=O)[C@H](NCCCNCCCCNCCCN)[C@@H]3O)[C@@H](CO)O2)c(=O)[nH]c1=O

Further lines, the molecule ahead of its results:

Row | SMILES | Tm (Nucleic Acid [1]) | Tm (Nucleic Acid [2])
3 | Cc1cn([C@H]2C[C@H](OP(O)(=S)OC[C@H]3O[C@@H](n4cnc5c(N)ncnc54)[C@H](O)[C@@H]3OP(O)(=S)OC[C@H]3O[C@@H](n4ccc(N)nc4=O)[C@H](O)[C@@H]3OP(O)(=S)OC[C@H]3O[C@@H](n4ccc(N)nc4=O)[C@H](O)[C@@H]3OP(O)(=S)OC[C@H]3O[C@@H](n4cnc5c(=O)[nH]c(N)nc54)[C@H](O)[C@@H]3OP(O)(=S)OC[C@H]3O[C@@H](n4ccc(N)nc4=O)[C@H](O)[C@@H]3OP(O)(=S)OC[C@H]3O[C@@H](n4cnc5c(=O)[nH]c(N)nc54)[C@H](O)[C@@H]3OP(O)(=S)OC[C@H]3O[C@@H](n4ccc(=O)[nH]c4=O)[C@H](NCCCNCCCCNCCCN)[C@@H]3OP(O)(=S)OC[C@H]3O[C@@H](n4cnc5c(=O)[nH]c(N)nc54)[C@H](O)[C@@H]3OP(O)(=S)OC[C@H]3O[C@@H](n4ccc(N)nc4=O)[C@H](O)[C@@H]3OP(O)(=S)OC[C@H]3O[C@@H](n4cnc5c(=O)[nH]c(N)nc54)[C@H](O)[C@@H]3OP(O)(=S)OC[C@H]3O[C@@H](n4cnc5c(N)ncnc54)[C@H](O)[C@@H]3OP(O)(=S)OC[C@H]3O[C@@H](n4ccc(N)nc4=O)[C@H](O)[C@@H]3OP(O)(=S)OC[C@H]3O[C@@H](n4ccc(N)nc4=O)[C@H](O)[C@@H]3OP(O)(=S)OC[C@H]3O[C@@H](n4ccc(N)nc4=O)[C@H](O)[C@@H]3OP(O)(=S)OC[C@H]3O[C@@H](n4cc(C)c(=O)[nH]c4=O)C[C@@H]3OP(O)(=S)OC[C@H]3O[C@@H](n4ccc(N)nc4=O)[C@H](O)[C@@H]3OP(O)(=S)OC[C@H]3O[C@@H](n4ccc(=O)[nH]c4=O)[C@H](NCCCNCCCCNCCCN)[C@@H]3O)[C@@H](CO)O2)c(=O)[nH]c1=O (some centres not stated) | 53 °C | 66.8 °C
4 | Cc1cn([C@@H]2O[C@H](CO)CN2c2ncnc3c2ncn3[C@@H]2O[C@H](COP(=O)(O)O[C@H]3[C@@H](O)[C@H](n4cnc5c(=O)[nH]c(N)nc54)O[C@@H]3COP(=O)(O)O[C@H]3[C@@H](O)[C@H](n4ccc(N)nc4=O)O[C@@H]3COP(=O)(O)O[C@H]3[C@@H](O)[C@H](n4cnc5c(=O)[nH]c(N)nc54)O[C@@H]3COP(=O)(O)O[C@H]3C[C@H](n4cc(C)c(=O)[nH]c4=O)O[C@@H]3COP(=O)(O)O[C@H]3[C@@H](O)[C@H](n4cnc5c(=O)[nH]c(N)nc54)O[C@@H]3COP(=O)(O)O[C@H]3[C@@H](O)[C@H](n4ccc(N)nc4=O)O[C@@H]3COP(=O)(O)O[C@H]3[C@@H](O)[C@H](n4cnc5c(=O)[nH]c(N)nc54)O[C@@H]3COP(=O)(O)O[C@H]3[C@@H](O)[C@H](n4ccc(N)nc4=O)O[C@@H]3COP(=O)(O)O[C@H]3[C@@H](O)[C@H](n4ccc(N)nc4=O)O[C@@H]3COP(=O)(O)O[C@H]3[C@@H](O)[C@H](n4cnc5c(N)ncnc54)O[C@@H]3COP(=O)(O)O[C@H]3[C@@H](NCCCNCCCCNCCCN)[C@H](n4ccc(=O)[nH]c4=O)O[C@@H]3CO)[C@@H](OP(=O)(O)OC[C@H]3O[C@@H](n4ccc(N)nc4=O)[C@H](O)[C@@H]3OP(=O)(O)OC[C@H]3O[C@@H](n4ccc(N)nc4=O)[C@H](O)[C@@H]3OP(=O)(O)OC[C@H]3O[C@@H](n4ccc(N)nc4=O)[C@H](O)[C@@H]3OP(=O)(O)OC[C@H]3O[C@@H](n4cc(C)c(=O)[nH]c4=O)C[C@@H]3OP(=O)(O)OC[C@H]3O[C@@H](n4ccc(N)nc4=O)[C@H](O)[C@@H]3OP(=O)(O)OC[C@H]3O[C@@H](n4ccc(=O)[nH]c4=O)[C@H](NCCCNCCCCNCCCN)[C@@H]3O)[C@H]2O)c(=O)[nH]c1=O | 61.8 °C | 79.7 °C
5 | Cc1cn([C@H]2C[C@H](OP(=O)(O)OC[C@H]3O[C@@H](n4cnc5c(N)ncnc54)[C@H](O)[C@@H]3OP(=O)(O)OC[C@H]3O[C@@H](n4ccc(N)nc4=O)[C@H](O)[C@@H]3OP(=O)(O)OC[C@H]3O[C@@H](n4ccc(N)nc4=O)[C@H](O)[C@@H]3OP(=O)(O)OC[C@H]3O[C@@H](n4cnc5c(=O)[nH]c(N)nc54)[C@H](O)[C@@H]3OP(=O)(O)OC[C@H]3O[C@@H](n4ccc(N)nc4=O)[C@H](O)[C@@H]3OP(=O)(O)OC[C@H]3O[C@@H](n4cnc5c(=O)[nH]c(N)nc54)[C@H](O)[C@@H]3OP(=O)(O)OC[C@H]3O[C@@H](n4cc(C)c(=O)[nH]c4=O)C[C@@H]3OP(=O)(O)OC[C@H]3O[C@@H](n4cnc5c(=O)[nH]c(N)nc54)[C@H](O)[C@@H]3OP(=O)(O)OC[C@H]3O[C@@H](n4ccc(N)nc4=O)[C@H](O)[C@@H]3OP(=O)(O)OC[C@H]3O[C@@H](n4cnc5c(=O)[nH]c(N)nc54)[C@H](O)[C@@H]3OP(=O)(O)OC[C@H]3O[C@@H](n4cnc5c(N)ncnc54)[C@H](O)[C@@H]3OP(=O)(O)OC[C@H]3O[C@@H](n4ccc(N)nc4=O)[C@H](O)[C@@H]3OP(=O)(O)OC[C@H]3O[C@@H](n4ccc(N)nc4=O)[C@H](O)[C@@H]3OP(=O)(O)OC[C@H]3O[C@@H](n4ccc(N)nc4=O)[C@H](O)[C@@H]3OP(=O)(O)OC[C@H]3O[C@@H](n4cc(C)c(=O)[nH]c4=O)C[C@@H]3OP(=O)(O)OC[C@H]3O[C@@H](n4ccc(N)nc4=O)[C@H](O)[C@@H]3OP(=O)(O)OC[C@H]3O[C@@H](n4cc(C)c(=O)[nH]c4=O)C[C@@H]3O)[C@@H](CO)O2)c(=O)[nH]c1=O | 65.3 °C | 79 °C
6 | Cc1cn([C@H]2C[C@H](OP(O)(=S)OC[C@H]3O[C@@H](n4cnc5c(N)ncnc54)[C@H](O)[C@@H]3OP(O)(=S)OC[C@H]3O[C@@H](n4ccc(N)nc4=O)[C@H](O)[C@@H]3OP(O)(=S)OC[C@H]3O[C@@H](n4ccc(N)nc4=O)[C@H](O)[C@@H]3OP(O)(=S)OC[C@H]3O[C@@H](n4cnc5c(=O)[nH]c(N)nc54)[C@H](O)[C@@H]3OP(O)(=S)OC[C@H]3O[C@@H](n4ccc(N)nc4=O)[C@H](O)[C@@H]3OP(O)(=S)OC[C@H]3O[C@@H](n4cnc5c(=O)[nH]c(N)nc54)[C@H](O)[C@@H]3OP(O)(=S)OC[C@H]3O[C@@H](n4cc(C)c(=O)[nH]c4=O)C[C@@H]3OP(O)(=S)OC[C@H]3O[C@@H](n4cnc5c(=O)[nH]c(N)nc54)[C@H](O)[C@@H]3OP(O)(=S)OC[C@H]3O[C@@H](n4ccc(N)nc4=O)[C@H](O)[C@@H]3OP(O)(=S)OC[C@H]3O[C@@H](n4cnc5c(=O)[nH]c(N)nc54)[C@H](O)[C@@H]3OP(O)(=S)OC[C@H]3O[C@@H](n4cnc5c(N)ncnc54)[C@H](O)[C@@H]3OP(O)(=S)OC[C@H]3O[C@@H](n4ccc(N)nc4=O)[C@H](O)[C@@H]3OP(O)(=S)OC[C@H]3O[C@@H](n4ccc(N)nc4=O)[C@H](O)[C@@H]3OP(O)(=S)OC[C@H]3O[C@@H](n4ccc(N)nc4=O)[C@H](O)[C@@H]3OP(O)(=S)OC[C@H]3O[C@@H](n4cc(C)c(=O)[nH]c4=O)C[C@@H]3OP(O)(=S)OC[C@H]3O[C@@H](n4ccc(N)nc4=O)[C@H](O)[C@@H]3OP(O)(=S)OC[C@H]3O[C@@H](n4ccc(=O)[nH]c4=O)[C@H](NCCCNCCCCNCCCN)[C@@H]3O)[C@@H](CO)O2)c(=O)[nH]c1=O (some centres not stated) | 53.2 °C | 74.3 °C
